Measurements taken from patent US8318898B2, “Synthetic peptides for use as inhibitors of neurotransmitter secretion and as inducers of cellular relaxation” (Universite de Lausanne, priority 2005, dated 2012).
* marks the point of attachment. Decanoyl = CCCCCCCCCC(=O)*; CH2Cl = ClC*

How the values were obtained:
PC-12 cells = test: Actin cytoskeleton organization, phalloidin-TRITC staining; format: cell-based, rat; conditions: 2 to 10 μM, 30 minutes, labeled or unlabeled
Protocol: Slides with PC-12 cells were prepared as stated previously for localization studies. Briefly, cells were exposed to FITC-labeled or unlabeled peptides, at various concentrations, for 30 minutes, fixed and then permeabilized. Subsequently, F-actin was fluorescently labeled with phalloidin-Tetramethyl Rhodamine Iso-Thiocyanate (TRITC) (Sigma Aldrich) conjugate, diluted on saponin buffer (0.25 μg/ml), and nuclear staining with DAPI dihydrochloride (Sigma Aldrich) (0.02 μg/ml), at room temperature for maximum 30 minutes. Finally, slides were mounted and sealed, and stored at 4° C. protected from light. The effect of the peptides to actin polymerization was analyzed by confocal microscopy, as described before.

rat lung fibroblast (LF) = test: Cell contraction/relaxation on wrinkling silicone substrate, live videomicroscopy; format: cell-based; conditions: 10 μM and 50 μM
Protocol: To study the effect(s) of the peptides on muscle cells, which associate with neurosecretory cells at neuromuscular junctions, peptides were cultured with rat lung fibroblast (LF) grown over wrinkling substrate (silicon) which can mimic the effects of contraction. These cells have a myofibroblastic phenotype, e.g., production of TGF-β, which make them suitable for cellular contraction/relaxation studies.
Wrinkling silicone substrates were prepared as essentially described previously (Harris, et al., Science. 208:177-179, 1980; Hinz, et al., Mol Biol Cell. 12:2730-41, 2001). Briefly, 50 μl of silicone (poly dimethyl siloxane; 30.000 centistokes, Dow Corning, Midland, Mich.) were deposited onto a 35 mm round glass coverslip at the bottom of a self-made observation chamber, which was centrifuged at 1.000 rpm for 2 minutes to spread the viscous fluid. The silicone surface was then crosslinked by passing it through a Bunsen flame; a flaming time of 1 second produced a surface stiffness that restricted wrinkle formation to fibroblasts with high contractile force (Hinz et al., supra). The polymerized silicone surface was finally coated with 10 μg/ml collagen type I (Sigma) for 2 hours at 37° C. Lung fibroblast cells were seeded at a density of 3.5×10^3 cells/cm^2 and cultured for 1-2 days before the experiment. […]

PC12 cells [1] = test: Inhibition of [3H]norepinephrine neurosecretion by PC12 cells; format: cell-based, rat
Protocol: Using the neurosecretion assay described above, peptides fused to the TAT-PTD (L-TAT) were tested for inhibition of neurotransmitters and compared to use of L-TAT alone (SEQ ID NO: 3). In vitro screening for synthetic peptides capable of efficiently and selectively blocking neurotransmitter release in the PC12 cell line grown under defined conditions was performed.
PC12 cells were washed with DMEM-WM (Dulbecco's Modified Eagle Medium (GIBCO cat. no. 31968) completed with 25 units of penicillin and streptomycin each) and loaded for 1-2 h with [^3H] norepinephrine (NE; 0.5 μCi/ml) in DMEM-CM (DMEM-WM complemented with 6% horse serum and 6% fetal calf serum). Cells were washed for 1 h with DMEM-WM, and then washed 2 times at 5-minute intervals. Basal release was determined by a 15-minutes incubation with CaSB-glucose 5 mM K^+ (CaSB-glucose: 140 mM NaCl, 5 mM KCl, 2 mM CaCl2, 11 mM glucose, [pH 7.4]). The peptides were added to the cells at defined concentrations after loading with NE but before induction of secretion. Cells were depolarized with 85 mM K^+ (CaSB-glucose with Na^+ reduced accordingly) for 15 minutes to determine stimulated release. Superfusate (1 ml) was removed to tubes. Adherent cells were solubilized in CaSB-glucose-0.1% Triton (1 ml/well). The quantities of released and non-released radiolabeled neurotransmitter were determined by liquid scintillation counting of cleared superfusates and cell lysates, respectively. Total uptake was calculated by addition of released and retained radioactivity, and the percentage release was as calculated (released counts/total uptake counts)×100. Results were also expressed as percent inhibition of neurosecretion.

Recombinant furin [2] = molecular target: T1, Recombinant furin (Homo sapiens, UniProt P09958); test: biochemical; format: biochemical
Protocol: To determine if the peptides described herein have an effect on the activity of PC enzymes which are involved in a condition or disorder such as fibrosis, the effect of the peptides on furin activity in vitro was measured as percent inhibition of cleavage of the furin substrate fluorogenic t-butyloxycarbonyl (Boc)-RVRR-7-amino-4-methylcoumarin (MCA).
All in vitro enzyme studies were performed at room temperature in a final volume of 50-100 μl in 96-well flat-bottom black plates. The buffer consisted of 100 mM HEPES, 1 mM CaCl2, 0.5% TritonX-100, and 1 mM 2-β-mercaptoethanol pH 7.5. Assays were performed using Boc-RVRR-MCA as fluorogenic substrate at 100 μM. Recombinant furin (0.8 U of activity) was incubated with Boc-RVRR-MCA in the presence or absence of varying concentrations of synthetic peptides D-9Rac/am (SEQ ID NO. 15), L-Bel1 (SEQ ID NO. 3), or L-9K (SEQ ID NO. 6). One unit of activity is defined as the amount of furin that can release 1 μmol of MCA from the fluorogenic Boc-RVRR-MCA per min at 30° C. The release of highly fluorescent 7-amino 4-methyl coumarin (MCA) from the Boc-RVRR-MCA was monitored by a spectrofluorometer instrument at excitation and emission wavelengths of 370 nm/460 nm. […]

[3] = 10% concentration in oil/water emulsion, 30-day treatment; cited from earlier work
PC12-ES cells = test: Evoked neurotransmitter secretion by undifferentiated PC12-ES cells, furin inhibitor and arginine rich peptides; format: cell-based, rat; conditions: for inhibition of evoked neurotransmitter secretion by PC12-ES cells: potassium 80 mM, 15 minutes
PC12 cells [4] = format: cell-based, rat
Protocol: […]. Very little toxicity was present at 24 hours, and cytotoxicity at 48 hours was only slightly greater than at 24 hours. Cytotoxicity generally dipped to approximately 90% live cells when peptides were administered at 500 μM.

furin = molecular target: T2, furin (Rattus norvegicus, UniProt P23377); format: biochemical; conditions: EDTA 50 mM, EGTA 50 mM, Dec-RVKR-CMK 50 μM
T2 construct: Furin activity was constitutively detected in PC12-ES cells; endogenous in cells; host or cells: PC12-ES cells (lysate)
Protocol: To monitor the intracellular furin activity, 80% confluent PC12-ES cells were washed twice with ice-cold phosphate-buffered saline (PBS1×) by centrifugation at 800×g for 5 minutes at 4° C., resuspended in 100 mM HEPES, 1 mM CaCl2, 0.5% TritonX-100, and 1 mM 2-β-mercaptoethanol, pH 7.5, sonicated 6 times at 4° C. for 10 seconds, and then centrifuged at 8000×g for 20 minutes at 4° C. The protein concentration in the samples was determined using a bicinchonic acid protein assay kit (Pierce Chemical Co.).
Intracellular furin activity was measured with a furin-specific fluorogenic substrate, t-butyloxycarbonyl (Boc)-[…]-7-amino-4-methylcoumarin (MCA). Briefly, the cell lysate (20 μg-60 μg of protein) prepared as described above was incubated with 100 μM Boc-RVRR-MCA in a 96-well flat-bottom black plate for at least 6 hours at room temperature and fluorescence measured by excitation at 365 nm and emission at 450 nm.

Recombinant furin [5] = molecular target: T1, Recombinant furin; conditions: CALBIOCHEM; cited from earlier work

T1 sequence (P09958 108-794): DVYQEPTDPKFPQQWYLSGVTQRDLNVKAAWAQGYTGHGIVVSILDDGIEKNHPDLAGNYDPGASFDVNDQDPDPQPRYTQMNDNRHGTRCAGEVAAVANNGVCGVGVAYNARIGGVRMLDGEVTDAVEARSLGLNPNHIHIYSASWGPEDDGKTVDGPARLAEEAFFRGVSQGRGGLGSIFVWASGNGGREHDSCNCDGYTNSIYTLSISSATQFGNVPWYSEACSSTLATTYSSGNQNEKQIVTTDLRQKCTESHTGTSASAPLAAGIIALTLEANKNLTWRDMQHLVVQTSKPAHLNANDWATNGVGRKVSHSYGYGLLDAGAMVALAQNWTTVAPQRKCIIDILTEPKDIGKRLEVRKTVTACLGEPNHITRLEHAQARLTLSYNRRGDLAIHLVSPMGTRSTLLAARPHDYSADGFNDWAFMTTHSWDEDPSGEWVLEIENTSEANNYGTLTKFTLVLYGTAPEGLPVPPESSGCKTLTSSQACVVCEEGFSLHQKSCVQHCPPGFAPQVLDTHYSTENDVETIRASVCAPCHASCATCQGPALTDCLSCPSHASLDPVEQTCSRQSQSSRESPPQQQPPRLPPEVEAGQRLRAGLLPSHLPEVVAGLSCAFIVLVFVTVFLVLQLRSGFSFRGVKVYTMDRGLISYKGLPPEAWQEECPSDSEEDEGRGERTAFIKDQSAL
T2 sequence (P23377 108-793): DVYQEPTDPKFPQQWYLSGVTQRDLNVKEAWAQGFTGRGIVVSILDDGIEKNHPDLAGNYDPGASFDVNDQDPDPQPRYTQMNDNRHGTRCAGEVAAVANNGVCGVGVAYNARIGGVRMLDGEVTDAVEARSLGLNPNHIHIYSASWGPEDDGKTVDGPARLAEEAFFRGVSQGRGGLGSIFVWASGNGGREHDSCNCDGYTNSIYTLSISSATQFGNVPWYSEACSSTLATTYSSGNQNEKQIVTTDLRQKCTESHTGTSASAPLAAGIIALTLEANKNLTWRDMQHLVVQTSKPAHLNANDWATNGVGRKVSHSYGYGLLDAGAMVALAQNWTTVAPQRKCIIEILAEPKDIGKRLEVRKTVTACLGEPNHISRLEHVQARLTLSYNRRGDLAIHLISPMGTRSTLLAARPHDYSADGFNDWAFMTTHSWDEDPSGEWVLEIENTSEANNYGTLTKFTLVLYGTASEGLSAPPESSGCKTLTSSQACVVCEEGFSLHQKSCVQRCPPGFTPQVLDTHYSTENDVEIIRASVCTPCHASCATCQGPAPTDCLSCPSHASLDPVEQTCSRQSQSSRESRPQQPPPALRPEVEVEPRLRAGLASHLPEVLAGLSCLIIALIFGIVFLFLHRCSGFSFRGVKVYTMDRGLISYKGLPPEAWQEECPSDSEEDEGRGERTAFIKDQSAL

## 9K-L: SEQ ID NO: 6 (GYGKKKKKKKKKG; Synthetic peptide 9K-L)
PC-12 cells
  effect on actin content and organization: No effect
Rat lung fibroblast (LF)
  relaxing effect on lung myofibroblasts on silicon substrate: not observed
PC12 cells [1]; concentration not given, peptide alone
  inhibition of neurotransmitter-evoked secretion: approximately 20%
Recombinant furin [2]
  concentration for complete blockade of cleavage of Boc-RVRR-MCA by furin: > 3.5 µM

## Ac-Glu-Glu-Met-Gln-Arg-Arg-NH2 (Ac-EEMQRR-NH2) [L-Argireline]
[3]
  reduced wrinkle depth: up to 30%
PC12 cells [1]; 50 μM (mixture: 50 μM each)
  inhibition of secretion: no inhibition

## Decanoyl-Arg-Val-Lys-Arg-CMK (Decanoyl-RVKR-CH2Cl) [FI-I, reference compound]
PC12-ES cells
  dose dependence of inhibition of evoked secretion: dose dependent
PC12-ES cells; 10 μM
  inhibition of evoked neurotransmitter secretion by PC12-ES cells: 12.6%
PC12-ES cells; 100 μM
  inhibition of evoked neurotransmitter secretion by PC12-ES cells: 50%
PC12 cells [4]
  cytotoxicity (MTT): no marked cytotoxicity
furin
  inhibition of intracellular furin activity (in words): inhibited
Recombinant furin [5]
  Ki: 1 nM
Recombinant furin [2]; Boc-RVRR-MCA 100 μM as substrate
  inhibition of in vitro furin activity (in words): inhibited
